Measurements as given in ChEMBL document CHEMBL5614378, “Novel compounds with dual inhibition activity against SARS-CoV-2 critical enzymes RdRp and human TMPRSS2” (Eur J Med Chem, 2024).
Activity calls are given as the source filed them. The rule behind the calls is not given here.

How the values were obtained:
[1] = molecular target: Replicase polyprotein 1ab (Severe acute respiratory syndrome coronavirus 2, UniProt P0DTD1); test: Inhibition of SARS-CoV-2 recombinant RdRp preincubated with enzyme for 15 mins followed by single stranded polyribonucleotide template and NTPs addition and measured after 2 hrs by fluorescence spectrometric analysis
SARS-CoV-2 [2] = assay type: functional, Vero E6; conditions: for inhibition at 10 µg/mL: Severe acute respiratory syndrome coronavirus 2, Vero C1008, 96 h, time 4 day
[3] = molecular target: Replicase polyprotein 1ab (Severe acute respiratory syndrome coronavirus 2) (UniProt P0DTD1); test: Inhibition of SARS-CoV-2 recombinant RdRp at 50 ug/ml preincubated with enzyme for 15 mins followed by single stranded polyribonucleotide template and NTPs addition and measured after 2 hrs by fluorescence spectrometric analysis relative to control; conditions: dose 50.0 µg/ml, time 135.0 min
SARS-CoV-2 [4] = test: microbe, parasite or virus in culture; conditions: Severe acute respiratory syndrome coronavirus 2, NRC-03-nhCoV, Vero C1008, 72 h
Description: Anti-SARS-CoV-2 activity against SARS-CoV-2 NRC-03-nhCoV infected in African green monkey Vero E6 cells assessed as inhibition of viral replication incubated for 72 hrs by crystal violet staining based analysis

SARS-CoV-2 [5] = assay type: functional, Vero E6; conditions: Severe acute respiratory syndrome coronavirus 2, Vero C1008, 72 h, time 3 day
SARS-CoV-2 [6] = assay type: functional, Vero E6; conditions: for inhibition at 10 µg/mL: Severe acute respiratory syndrome coronavirus 2, Vero C1008, 72 h, time 3 day
in vitro = conditions: monkey, Vero E6 cells
Description: Selectivity index, ratio of CC50 for cytotoxicity against African green monkey Vero E6 cells to IC50 for anti-SARS-CoV-2 activity against SARS-CoV-2 NRC-03-nhCoV infected in African green monkey Vero E6 cells

SARS-CoV-2 [7] = test: microbe, parasite or virus in culture; conditions: Severe acute respiratory syndrome coronavirus 2, NRC-03-nhCoV, Calu-3, 72 h
Description: Anti-SARS-CoV-2 activity against SARS-CoV-2 NRC-03-nhCoV infected in human Calu-3 cells expressing TMPRSS2 assessed as inhibition of viral replication incubated for 72 hrs by crystal violet staining based analysis

[8] = Cytotoxicity against human Calu-3 cells; assay type: toxicity, cell-based
SARS-CoV-2 [9] = assay type: functional; conditions: Severe acute respiratory syndrome coronavirus 2, Calu-3, 96 h; dose 30 nM; time 4 day
SARS-CoV-2 [10] = assay type: functional; conditions: Severe acute respiratory syndrome coronavirus 2, Calu-3, 96 h; dose 15 nM; time 4 day

With `N#C[C@@]1(c2ccc3c(NC(=O)c4ccc(NC(=N)N)cc4)ncnn23)O[C@H](CO)[C@@H](O)[C@H]1O` the IC50 [1] was 6.1 nM, the inhibition at 10 µg/mL (SARS-CoV-2 [2]) was 44% and the inhibition [3] was 91.5%. For the same compound, the IC50 (SARS-CoV-2 [4]) was 3.9 nM, the inhibition at 10 µg/mL (SARS-CoV-2 [5]) was 66% and the inhibition at 10 µg/mL (SARS-CoV-2 [6]) was 51.4%.

`O=C(Nc1ccn(C2OC(CO)C(O)C2O)c(=O)n1)c1ccc(Nc2ncccn2)cc1` (stereo unspecified) showed a selectivity ratio (in vitro) of 7.18 and an IC50 (SARS-CoV-2 [4]) of 52 nM.

`CC(C)c1cc(=O)oc2ccc(OC(=O)c3ccc(NC(=N)N)cc3)cc12` showed an IC50 [1] of 4.42 nM, an inhibition at 10 µg/mL (SARS-CoV-2 [2]) of 65% and an inhibition [3] of 89%. The IC50 (SARS-CoV-2 [7]) was 17.5 nM, the IC50 (SARS-CoV-2 [4]) was 5.7 nM and the CC50 [8] was 450 nM. For the same compound, the inhibition at 0.03 µM (SARS-CoV-2 [9]) was 60%, the inhibition at 0.015 µM (SARS-CoV-2 [10]) was 45% and the inhibition at 10 µg/mL (SARS-CoV-2 [5]) was 63.2%. It also gave an inhibition at 10 µg/mL (SARS-CoV-2 [6]) of 90.5%.

With `CN(C)C(=O)COC(=O)Cc1ccc(OC(=O)c2ccc(NC(=N)N)cc2)cc1` [CAMOSTAT] the IC50 (SARS-CoV-2 [7]) was 8.21 nM, the CC50 [8] was 230 nM and the inhibition at 0.03 µM (SARS-CoV-2 [9]) was 80%. The inhibition at 0.015 µM (SARS-CoV-2 [10]) was 70%.

For `N#C[C@@]1(c2ccc3c(NC(=O)c4ccc(Nc5ncccn5)cc4)ncnn23)O[C@H](CO)[C@@H](O)[C@H]1O`, the IC50 [1] was 32.4 nM, the inhibition (SARS-CoV-2 [2]; Severe acute respiratory syndrome coronavirus 2, Vero E6, dose 10.0 µg/ml, time 4.0 day) was “inactive” and the inhibition [3] was 77%. The selectivity ratio (in vitro) was 2.64, the IC50 (SARS-CoV-2 [4]) was 19.7 nM and the inhibition at 10 µg/mL (SARS-CoV-2 [5]) was 51.3%. For the same compound, the inhibition (SARS-CoV-2 [6]; Severe acute respiratory syndrome coronavirus 2, Vero E6, dose 10.0 µg/ml, time 3.0 day) was “inactive”.

Work on `N=C(N)Nc1ccc(C(=O)Nc2ncnc3[nH]cnc23)cc1` yielded a selectivity ratio (in vitro) of 1 and an IC50 (SARS-CoV-2 [4]) of 22.8 nM.

For `CC(C)(C)OC(=O)Nc1ccc(C(=O)Nc2ncnn3c([C@]4(C#N)O[C@H](CO)[C@@H](O)[C@H]4O)ccc23)cc1`, the selectivity ratio (in vitro) was 6.65 and the IC50 (SARS-CoV-2 [4]) was 42.2 nM.

`CCC(CC)COC(=O)[C@H](C)N[P@](=O)(OC[C@H]1O[C@@](C#N)(c2ccc3c(N)ncnn23)[C@H](O)[C@@H]1O)Oc1ccccc1` [REMDESIVIR] showed an inhibition [3] of 73%, a selectivity ratio (in vitro) of 3.02 and an IC50 (SARS-CoV-2 [4]) of 55.6 nM.
